Data set [1] has as its system HBV replication in HepAD38 cells. As to the kind of experiment: Anti-HBV replication assay in HepAD38 cells (QPCR of extracellular HBV DNA). Conditions: Hepatitis B virus, 168 h, 7 days incubation, extracellular HBV DNA by QPCR, read-out: Anti-HBV EC50. The format is cell-based, HBV (genotype D, serotype ayw). Put shortly: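 HepAD38 cells (HepG2 carrying tet-repressible HBV genotype D genome) induced by tetracycline withdrawal, treated 7 days at 37 °C with compound ([…], 1-log10 dilutions). Extracellular HBV DNA quantified by QPCR against a standard curve, normalised to DMSO; EC50 from 4-parameter fit.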

A short description of data set [2]: In vitro cytotoxicity assay (MTT cell viability) in HepG2 cells. The format is cell-based, human. As to conditions: human. Put shortly:
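Using MTT conversion as the viability measure, HepG2 cells were incubated with compounds for 7 days (30 μM to 1.0 nM). Absorbance at 492 nm was normalized to vehicle and fitted to give CC50.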

As for `Cc1cc(NC(=O)c2c(C)c(C(=O)C(=O)NC3(CN4CCOCC4)CCCC3)n(C)c2C)ccc1F` [Example 595, N-(4-fluoro-3-methylphenyl)-1,2,4-trimethyl-5-(2-((1-(morpholinomethyl)cyclopentyl)amino)-2-oxoacetyl)-1H-pyrrole-3-carboxamide], the EC50 in data set [1] was less than 50 nM. The same compound yielded a CC50 at 7 days in data set [2] greater than 30 µM.
For `Cc1cc(NC(=O)c2c(C)c(C(=O)C(=O)N[C@]3(C)C[C@@H](O)C3)n(C)c2C)ccc1F` [Example 619], the EC50 in data set [1] is less than 50 nM. The same compound showed a 50% cytotoxic concentration (CC50) at 7 days in data set [2] greater than 30 µM.
The like results for `Cc1cc(NC(=O)c2c(C)c(C(=O)C(=O)N[C@H]3[C@@H]4CN(S(C)(=O)=O)C[C@@H]43)n(C)c2C)ccc1F` [Example 644, N-(4-fluoro-3-methylphenyl)-1,2,4-trimethyl-5-(2-(((1R,5S,6s)-3-(methylsulfonyl)-3-aabicyclo[3.1.0]hexan-6-yl)amino)-2-oxoacetyl)-1H-pyrrole-3-carboxamide] were, in that order, less than 50 nM and 5 to 30 µM.
Turning to `Nc1ncc(CNC(=O)C(=O)c2c(Cl)c(C(=O)Nc3ccc(F)c(F)c3)c3n2CCC3)s1` [Example 569, 5-(2-(((2-aminothiazol-5-yl)methyl)amino)-2-oxoacetyl)-6-chloro-N-(3,4-difluorophenyl)-2,3-dihydro-1H-pyrrolizine-7-carboxamide], the EC50 in data set [1] is less than 50 nM. The CC50 at 7 days in data set [2] is greater than 30 µM.
Consider `Cc1cc(NC(=O)c2c(C)c(C(=O)C(=O)NC3(c4noc(C(F)F)n4)CCC3)n(C)c2C)cnc1F` [Example 159, 5-(2-((1-(5-(difluoromethyl)-1,2,4-oxadiazol-3-yl)cyclobutyl)amino)-2-oxoacetyl)-N-(6-fluoro-5-methylpyridin-3-yl)-1,2,4-trimethyl-1H-pyrrole-3-carboxamide], for which the EC50 in data set [1] is less than 50 nM. In data set [2], this compound registered a CC50 at 7 days greater than 30 µM.
The like results for `Cc1cc(NC(=O)c2c(C)c(C(=O)C(=O)NC3(CO)CC3)n3c2CCCC3)ccc1F` [Example 445, N-(4-fluoro-3-methylphenyl)-3-(2-((1-(hydroxymethyl)cyclopropyl)amino)-2-oxoacetyl)-2-methyl-5,6,7,8-tetrahydroindolizine-1-carboxamide] were, in that order, less than 50 nM and 5 to 30 µM.
As to `Cc1noc([C@@H](C)NC(=O)C(=O)c2c(C)c(C(=O)Nc3cnc(F)c(C)c3)c3n2CCCC3)n1` [Example 472, (R)-N-(6-fluoro-5-methylpyridin-3-yl)-2-methyl-3-(2-((1-(3-methyl-1,2,4-oxadiazol-5-yl)ethyl)amino)-2-oxoacetyl)-5,6,7,8-tetrahydroindolizine-1-carboxamide], the 50% effective concentration (EC50) in data set [1] is greater than 1000 nM. For the same compound, the CC50 at 7 days in data set [2] is greater than 30 µM.
The corresponding values for `CNC(=O)C1(NC(=O)C(=O)c2c(C)c(C(=O)Nc3ccc(F)c(C)c3)c(C)n2C)CC(F)(F)C1` [Example 104, 5-(2-((3,3-difluoro-1-(methylcarbamoyl)cyclobutyl)amino)-2-oxoacetyl)-N-(4-fluoro-3-methylphenyl)-1,2,4-trimethyl-1H-pyrrole-3-carboxamide] are less than 50 nM and greater than 30 µM.
The corresponding values for `Cc1cc(NC(=O)c2c(C)c(C(=O)C(=O)NC3(C)CCN(c4cccnn4)CC3)n(C)c2C)ccc1F` [Example 728, N-(4-fluoro-3-methylphenyl)-1,2,4-trimethyl-5-(2-((4-methyl-1-(pyridazin-3-yl)piperidin-4-yl)amino)-2-oxoacetyl)-1H-pyrrole-3-carboxamide] are less than 50 nM and greater than 30 µM.
The like results for `Cc1cc(NC(=O)c2c(C)c(C(=O)C(=O)NC(C)C(F)(F)F)n(C)c2C)ccc1F` (stereo not drawn) [Example 10, N-(4-fluoro-3-methylphenyl)-1,2,4-trimethyl-5-(2-oxo-2-((1,1,1-trifluoropropan-2-yl)amino)acetyl)-1H-pyrrole-3-carboxamide] were, in that order, less than 50 nM and 5 to 30 µM.
Consider `Cc1cc(NC(=O)c2c(C)c(C(=O)C(=O)N[C@H](C(N)=O)[C@H](C)O)n(C)c2C)ccc1F` [Example 57, 5-(2-(((2S,3S)-1-amino-3-hydroxy-1-oxobutan-2-yl)amino)-2-oxoacetyl)-N-(4-fluoro-3-methylphenyl)-1,2,4-trimethyl-1H-pyrrole-3-carboxamide], for which, in data set [1], the EC50 was in the range of 50 to 499 nM. For the same compound, the CC50 at 7 days in data set [2] is greater than 30 µM.
The corresponding values for `Cc1c(C(=O)Nc2ccc(F)nc2)c(C)n(C)c1C(=O)C(=O)NC1C2CC3CC(C2)CC1C3` (stereo not drawn) [Example 91, 5-(2-(((1r,3r)-adamantan-2-yl)amino)-2-oxoacetyl)-N-(6-fluoropyridin-3-yl)-1,2,4-trimethyl-1H-pyrrole-3-carboxamide] are less than 50 nM and greater than 30 µM.
As to `Cc1cc(NC(=O)c2c(C)c(C(=O)C(=O)N[C@H]3CC[C@H](O)CC3)n(CCF)c2C)ccc1F` [Example 198, N-(4-fluoro-3-methylphenyl)-1-(2-fluoroethyl)-5-(2-(((1r,4r)-4-hydroxycyclohexyl)amino)-2-oxoacetyl)-2,4-dimethyl-1H-pyrrole-3-carboxamide], in data set [1], the EC50 fell in the range of 50 to 499 nM. Further, the CC50 at 7 days in data set [2] is greater than 30 µM.
With `Cc1cc(NC(=O)c2cc(C(=O)C(=O)NC3(CO)CC3)n3c2CCCC3)ccc1F` [Example 420, N-(4-fluoro-3-methylphenyl)-3-(2-((1-(hydroxymethyl)cyclopropyl)amino)-2-oxoacetyl)-5,6,7,8-tetrahydroindolizine-1-carboxamide], in data set [1], the EC50 lay within 50 to 499 nM. Also, in data set [2], the CC50 at 7 days is greater than 30 µM.
For the compound `Cc1c(C(=O)Nc2ccnc(F)c2)c(C)n(C)c1C(=O)C(=O)NC(C)(C)CO` [Example 133, N-(2-fluoropyridin-4-yl)-5-(2-((1-hydroxy-2-methylpropan-2-yl)amino)-2-oxoacetyl)-1,2,4-trimethyl-1H-pyrrole-3-carboxamide], in data set [1], the EC50 lay in the range of 50 to 499 nM. This compound had a CC50 at 7 days in data set [2] greater than 30 µM.
Consider `CC(C)(O)CNC(=O)C(=O)c1c(Cl)c(C(=O)Nc2ccnc(F)c2)c2n1CCCC2` [Example 530, 2-chloro-N-(22-fluoropyridin-4-yl)-3-(22-((2-hydroxy-2-methylpropyl)amino)-2-oxoacetyl)-5,6,7,8-tetrahydroindolizine-1-carboxamide], for which the EC50 in data set [1] was greater than 1000 nM. In data set [2], this compound displayed a CC50 at 7 days greater than 30 µM.
The corresponding values for `Cc1cc(NC(=O)c2c(C)c(C(=O)C(=O)NC3(C(=O)NC(C)C)CCOCC3)n(C)c2C)ccc1F` [Example 303, N-(4-fluoro-3-methylphenyl)-5-(2-((4-(isopropylcarbamoyl)tetrahydro-2H-pyran-4-yl)amino)-2-oxoacetyl)-1,2,4-trimethyl-1H-pyrrole-3-carboxamide] are less than 50 nM and greater than 30 µM.
For `Cc1cc(NC(=O)c2c(C)c(C(=O)C(=O)NC34CC5CC(CC3C5)C4)n(C)c2C)cnc1F` [Example 113, N-(6-fluoro-5-methylpyridin-3-yl)-5-(2-(((2R,3as,5S,6as)-hexahydro-2,5-methanopentalen-3a(1H)-yl)amino)-2-oxoacetyl)-1,2,4-trimethyl-1H-pyrrole-3-carboxamide], the EC50 in data set [1] is less than 50 nM. Besides, the CC50 at 7 days in data set [2] was greater than 30 µM.

The values above are taken from patent publication US20190375708A1 (VenatoRx Pharmaceuticals, Inc., priority 2018, published 2019).
